Our source for the IC50 values is patent US8012956B2, “Tropane compounds” (Exelixis, Inc., priority 2007, dated 2011).

Structures are written as SMILES.

This assay concerns the target HSP90 (Homo sapiens, UniProt P07900). The experiment in a line: HSP90 inhibition (HSP90 IC50). The class given is biochemical.
For the molecule `COc1cccc(C(=O)N[C@H]2C[C@H]3CC[C@@H](C2)N3c2ccc(C(=O)NCCCN3CCN(C)CC3)cn2)c1C` [6-[3-endo-({[2-methyl-3-(methyloxy)phenyl]carbonyl}amino)-8-azabicyclo[3.2.1]oct-8-yl]-N-[3-(4-methylpiperazin-1-yl)propyl]pyridine-3-carboxamide], the IC50 (as a rule, the concentration needed to halve the response being measured) was 500 to 999 nM. `NC(=O)c1ccc(C(=O)N[C@H]2C[C@H]3CC[C@@H](C2)N3c2ccc(C(=O)CCNc3ccc(F)cc3)cn2)cc1NCC1CC1` [2-[(cyclopropylmethyl)amino]-N4-(8-{5-(N-(4-fluorophenyl)-beta-alanyl]pyridin-2-yl}-8-azabicyclo[3.2.1]oct-3-endo-yl)benzene-1,4-dicarboxamide] displayed an IC50 of 2000 to 10000 nM. In turn, `NC(=O)c1cc(Br)c(C(=O)N[C@H]2C[C@H]3CC[C@@H](C2)N3c2ccc(C(=O)C3CC3)cn2)cc1NC1CCC1` [2-bromo-5-(cyclobutylamino)-N-{8-[5-(cyclopropylcarbonyl)pyridin-2-yl]-8-azabicyclo[3.2.1]oct-3-endo-yl}benzene-1,4-dicarboxamide] had an IC50 of under 500 nM. `CC(=O)c1ccc(N2[C@@H]3CC[C@H]2C[C@@H](NC(=O)c2ccc(C(N)=O)c(NCC(F)(F)F)c2)C3)nc1` [N4-[8-(5-acetylpyridin-2-yl)-8-azabicyclo[3.2.1]oct-3-endo-yl]-2-[(2,2,2-trifluoroethyl)amino]benzene-1,4-dicarboxamide] had an IC50 of under 500 nM. On to `Cc1cccc(C(=O)N[C@H]2C[C@H]3CC[C@@H](C2)N3c2ccc(C(=O)NCc3ccccc3)cn2)c1C` [6-(3-endo-{[(2,3-dimethylphenyl)carbonyl]amino}-8-azabicyclo[3.2.1]oct-8-yl)-N-(phenylmethyl)pyridine-3-carboxamide], for which the IC50 fell in the range of 2000 to 10000 nM. In the case of `Cc1cnc(CNC(=O)c2ccc(N3[C@@H]4CC[C@H]3C[C@@H](NC(=O)c3ccc(CO)cc3)C4)nc2)cn1` [6-[3-endo-({[4-(hydroxymethyl)phenyl]carbonyl}amino)-8-azabicyclo[3.2.1]oct-8-yl]-N-[(5-methylpyrazin-2-yl)methyl]pyridine-3-carboxamide] it was under 500 nM.

Take `Cc1c(C(=O)NC2CC3CCC(C2)N3c2ccc(C(=O)N[C@@H](C)c3ccc(N4CCN(C)CC4)cc3)cn2)cccc1N(C)C` (stereo partly drawn) [6-[3-endo-({[3-(dimethylamino)-2-methylphenyl]carbonyl}amino)-8-azabicyclo[3.2.1]oct-8-yl]-N-{(1S)-1-[4-(4-methylpiperazin-1-yl)phenyl]ethyl}pyridine-3-carboxamide]: the IC50 lay within 2000 to 10000 nM. Molecule `O=C(NCc1cccnc1)c1ccc(N2[C@@H]3CC[C@H]2C[C@@H](NC(=O)c2ccc(CO)cc2)C3)nc1` [6-[3-endo-({[4-(hydroxymethyl)phenyl]carbonyl}amino)-8-azabicyclo[3.2.1]oct-8-yl]-N-(pyridin-3-ylmethyl)pyridine-3-carboxamide] returned an IC50 of under 500 nM. As for `Cc1cc(C(=O)N[C@H]2C[C@H]3CC[C@@H](C2)N3c2ccc(C(=O)NCc3ccccc3)cn2)c(C)cc1C(N)=O` [2,5-dimethyl-N-[8-(5-{[(phenylmethyl)amino]carbonyl}pyridin-2-yl)-8-azabicyclo[3.2.1]oct-3-endo-yl]benzene-1,4-dicarboxamide], the figure is under 500 nM.

Consider `NC(=O)c1cc(Br)c(C(=O)N[C@H]2C[C@H]3CC[C@@H](C2)N3c2ccc(C(=O)C3CC3)cn2)cc1NCCC(F)(F)F` [2-bromo-N-{8-[5-(cyclopropylcarbonyl)pyridin-2-yl]-8-azabicyclo[3.2.1]oct-3-endo-yl}-5-[(3,3,3-trifluoropropyl)amino]benzene-1,4-dicarboxamide], for which the IC50 is under 500 nM.

`Cc1cc(C(=O)N[C@H]2C[C@H]3CC[C@@H](C2)N3c2ccc(C(=O)NC3CCN(C(C)C)CC3)cn2)c(C)cc1C(N)=O` [2,5-dimethy˜-N-{8-[5-({[1-(1 methylethyl)piperidin-4-yl]amino}carbonyl)pyridin-2-yl]-8-azabicyclo[3.2.1]oct-3-endo-yl}benzene-1,4-dicarboxamide] had a half-inhibitory concentration (IC50) of 500 to 999 nM. As for `CC(C)N1CC[C@@H](NC(=O)c2ccc(N3C4CCC3CC(NC(=O)c3ccc(C(N)=O)c(N[C@H]5CC[C@H](O)CC5)c3)C4)nc2)C1` (stereo partly drawn) [2-[(4-trans-hydroxycyclohexyl)amino]-N4-{8-[5-({[1-(1-methylethyl)pyrrolidin-3-yl]amino}carbonyl)pyridin-2-yl]-8-azabicyclo[3.2.1]oct-3-endo-yl}benzene-1,4-dicarboxamide], the figure is under 500 nM; as for `COc1cccc(C(=O)N[C@H]2C[C@H]3CC[C@@H](C2)N3c2ccc(C(=O)NCCc3ccncc3)cn2)c1C` [6-[3-endo-({[2-methyl-3-(methyloxy)phenyl]carbonyl}amino)-8-azabicyclo[3.2.1]oct-8-yl]-N-(2-pyridin-4-ylethyl)pyridine-3-carboxamide], 1000 to 2000 nM. Molecule `N=C(N)c1ccc(C(=O)N[C@H]2C[C@H]3CC[C@@H](C2)N3c2ccc(C(=O)NCc3ccccc3)cn2)cc1` [6-{3-endo-[({4-[amino(imino)methyl]phenyl}carbonyl)amino]-8-azabicyclo[3.2.1]oct-8-yl}-N-(phenylmethyl)pyridine-3-carboxamide] had an IC50 of 2000 to 10000 nM. With `CC[C@@H](C)Nc1cc(C(=O)NC2CC3CCC(C2)N3c2ccc(C(=O)C3CC3)cn2)c(C(F)(F)F)cc1C(N)=O` (stereo partly drawn) [N-{8-[5-(cyclopropylcarbonyl)pyridin-2-yl]-8-azabicyclo[3.2.1]oct-3-endo-yl}-5-{[(1R)-1-methylpropyl]amino}-2-(trifluoromethyl)benzene-1,4-dicarboxamide], the concentration for half-maximal inhibition (IC50) is under 500 nM. The molecule `COc1cccc(C(=O)N[C@H]2C[C@H]3CC[C@@H](C2)N3c2ccc(C(=O)NCc3c(F)cccc3F)cn2)c1C` [N-[(2,6-difluorophenyl)methyl]-6-[3-endo-({[2-methyl-3-(methyloxy)phenyl]carbonyl}amino)-8-azabicyclo[3.2.1]oct-8-yl]pyridine-3-carboxamide] registered a half-maximal inhibitory concentration (IC50) of under 500 nM. `NC(=O)c1ccc(C(=O)N[C@H]2C[C@H]3CC[C@@H](C2)N3c2ccc(C(=O)C3CCC3)cn2)cc1NCC1CC1` [N4-{8-[5-(cyclobutylcarbonyl)pyridin-2-yl]-8-azabicyclo[3.2.1]oct-3-endo-yl}-2-[(cyclopropylmethyl)amino]benzene-1,4-dicarboxamide]: the IC50 was 1000 to 2000 nM. The molecule `COc1cccc(C(=O)N[C@H]2C[C@H]3CC[C@@H](C2)N3c2ccc(C(N)=O)cn2)c1C#CCCO` [6-[3-endo-({[2-(4-hydroxybut-1-yn-1-yl)-3-(methyloxy)phenyl]carbonyl}amino)-8-azabicyclo[3.2.1]oct-8-yl]pyridine-3-carboxamide] gave a 50% inhibitory concentration (IC50) of 2000 to 10000 nM. In the case of `COc1cccc(C(=O)NC2CC3CCC(C2)N3c2ccc(C(=O)N[C@@H]3CCN(Cc4ccccc4)C3)cn2)c1C` (stereo partly drawn) [6-[3-endo-({[2-methyl-3-(methyloxy)phenyl]carbonyl}amino)-8-azabicyclo[3.2.1]oct-8-yl]-N-[(3R)-1-(phenylmethyl)pyrrolidin-3-yl]pyridine-3-carboxamide] it was under 500 nM. Regarding `CC(=O)Nc1cc(C(=O)N[C@H]2C[C@H]3CC[C@@H](C2)N3c2ccc(C(N)=O)cn2)ccc1C(N)=O` [2-(acetylamino)-N4-{8-[5-(aminocarbonyl)pyridin-2-yl]-8-azabicyclo[3.2.1]oct-3-endo-yl}benzene-1,4-dicarboxamide], the IC50 lay within 1000 to 2000 nM.
